Here are results for nine compounds from the SangsterLogP compilation.

Molecules are shown by their SMILES.

Turning to `O=C(O)CCCCO/N=C(/c1ccccc1)c1ccnnc1`, the logP is -0.33.
Turning to `O=C(O)CCCCCON=C(c1ccccc1)c1cnccn1`, the logP worked out at 0.23.
`O=C(O)CCCO/N=C(\c1ccccc1)c1ccnnc1` came in with a logP of -0.4.
`O=C(O)CCCO/N=C(/c1ccccc1)c1cccnn1`: the lipophilicity (logP) is -0.27.
The compound `O=C(O)CCCCCO/N=C(/c1ccccc1)c1cccnn1` came in with a logP of -0.01.
The compound `O=C(O)CCCCO/N=C(/c1ccccc1)c1cccnn1` came in with a lipophilicity (logP) of 0.
For `O=C(O)CCCO/N=C(/c1ccccc1)c1cnccn1` the value was -0.53; for `O=C(O)CCCCCO/N=C(/c1ccccc1)c1ccnnc1`, 0.1.
`O=C(O)CCCCO/N=C(/c1ccccc1)c1cnccn1` returned a logP of -0.23.

What is called logP is a log measure of how a compound divides between an organic and an aqueous phase.
